Data: article PMC7180948, “New Insights into 4-Anilinoquinazolines as Inhibitors of Cardiac Troponin I–Interacting Kinase (TNNi3K)” (Molecules, 2020)

Tests used:
Assay in all cases: biochemical
Design in all cases: KINOMEscan competition binding panel (Eurofins DiscoverX), single concentration, percent inhibition
Conditions in all cases: read-out: 15 at 1 µM % inhibition
[1] = target: T1, ERK5 (Homo sapiens, UniProt Q13164)
T1 construct: gene MAPK7
Summary of the method: (§1)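 KINOMEscan binding panel of >400 kinases, run by Eurofins DiscoverX, with compounds tested at a single concentration of 1 µM.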

[2] = target: PIK3CA(Q546K) (Homo sapiens, UniProt P42336, Q546K)
Summary of the method: as §1

[3] = target: T2, NIM1 (Homo sapiens, UniProt Q8IY84)
T2 construct: gene NIM1K
Summary of the method: as §1

[4] = target: WEE2 (Homo sapiens, UniProt P0C1S8)
Summary of the method: as §1

[5] = target: MUSK (Homo sapiens, UniProt O15146)
Sequence of MUSK (O15146 whole entry): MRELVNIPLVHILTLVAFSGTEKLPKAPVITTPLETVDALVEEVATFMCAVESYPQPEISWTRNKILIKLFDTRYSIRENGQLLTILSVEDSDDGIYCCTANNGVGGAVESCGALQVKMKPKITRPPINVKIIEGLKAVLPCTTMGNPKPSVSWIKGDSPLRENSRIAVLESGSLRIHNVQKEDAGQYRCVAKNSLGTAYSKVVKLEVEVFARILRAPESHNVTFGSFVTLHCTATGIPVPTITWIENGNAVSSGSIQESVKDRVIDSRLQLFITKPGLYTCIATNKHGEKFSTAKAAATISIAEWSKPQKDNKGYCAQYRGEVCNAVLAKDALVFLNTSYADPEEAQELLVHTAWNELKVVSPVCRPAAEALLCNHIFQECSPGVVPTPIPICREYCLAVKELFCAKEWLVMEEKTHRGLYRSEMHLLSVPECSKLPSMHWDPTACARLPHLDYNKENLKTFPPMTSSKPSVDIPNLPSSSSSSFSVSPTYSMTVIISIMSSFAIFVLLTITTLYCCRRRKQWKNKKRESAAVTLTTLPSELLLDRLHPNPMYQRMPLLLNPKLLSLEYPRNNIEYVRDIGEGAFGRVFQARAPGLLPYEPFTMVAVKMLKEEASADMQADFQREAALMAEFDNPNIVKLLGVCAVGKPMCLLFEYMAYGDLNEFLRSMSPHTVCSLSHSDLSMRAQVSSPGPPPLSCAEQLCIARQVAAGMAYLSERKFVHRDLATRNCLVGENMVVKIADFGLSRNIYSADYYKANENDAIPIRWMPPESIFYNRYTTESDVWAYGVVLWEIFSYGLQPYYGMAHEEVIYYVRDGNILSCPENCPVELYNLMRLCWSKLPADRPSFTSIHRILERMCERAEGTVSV
Summary of the method: as §1

[6] = target: SRC (Homo sapiens, UniProt P12931)
Summary of the method: as §1

[7] = target: T3, RSK2(Kin.Dom.2-C-terminal) (Homo sapiens, UniProt P51812)
T3 construct: gene RPS6KA3; Kin.Dom.2-C-terminal
Summary of the method: as §1

[8] = target: RIPK1 (Homo sapiens, UniProt Q13546)
Sequence of RIPK1 (Q13546 whole entry): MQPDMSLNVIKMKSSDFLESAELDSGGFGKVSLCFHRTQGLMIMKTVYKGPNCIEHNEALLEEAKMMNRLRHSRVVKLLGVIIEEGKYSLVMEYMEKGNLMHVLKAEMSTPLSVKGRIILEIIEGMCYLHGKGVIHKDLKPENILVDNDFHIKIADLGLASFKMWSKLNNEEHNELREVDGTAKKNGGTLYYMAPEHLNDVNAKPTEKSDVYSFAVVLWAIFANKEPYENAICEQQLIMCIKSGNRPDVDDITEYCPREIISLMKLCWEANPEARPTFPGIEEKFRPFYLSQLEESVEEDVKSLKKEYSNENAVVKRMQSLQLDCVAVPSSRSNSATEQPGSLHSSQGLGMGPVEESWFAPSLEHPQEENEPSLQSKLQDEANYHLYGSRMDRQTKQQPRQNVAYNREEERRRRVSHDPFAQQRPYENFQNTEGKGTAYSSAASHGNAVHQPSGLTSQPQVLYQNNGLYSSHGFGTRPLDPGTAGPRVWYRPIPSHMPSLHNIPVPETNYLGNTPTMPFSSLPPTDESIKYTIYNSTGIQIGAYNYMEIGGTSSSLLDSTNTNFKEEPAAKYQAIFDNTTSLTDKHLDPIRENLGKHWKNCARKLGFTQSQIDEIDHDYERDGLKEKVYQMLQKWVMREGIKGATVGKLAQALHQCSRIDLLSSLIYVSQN
Summary of the method: as §1

[9] = target: BTK (Homo sapiens, UniProt Q06187)
Summary of the method: as §1

[10] = target: MAPKAPK2 (Homo sapiens, UniProt P49137)
Summary of the method: as §1

[11] = target: T4, AMPK-alpha2 (Homo sapiens, UniProt P54646)
T4 construct: gene PRKAA2
Summary of the method: as §1

[12] = target: SNRK (Homo sapiens, UniProt Q9NRH2)
Sequence of SNRK (Q9NRH2 whole entry): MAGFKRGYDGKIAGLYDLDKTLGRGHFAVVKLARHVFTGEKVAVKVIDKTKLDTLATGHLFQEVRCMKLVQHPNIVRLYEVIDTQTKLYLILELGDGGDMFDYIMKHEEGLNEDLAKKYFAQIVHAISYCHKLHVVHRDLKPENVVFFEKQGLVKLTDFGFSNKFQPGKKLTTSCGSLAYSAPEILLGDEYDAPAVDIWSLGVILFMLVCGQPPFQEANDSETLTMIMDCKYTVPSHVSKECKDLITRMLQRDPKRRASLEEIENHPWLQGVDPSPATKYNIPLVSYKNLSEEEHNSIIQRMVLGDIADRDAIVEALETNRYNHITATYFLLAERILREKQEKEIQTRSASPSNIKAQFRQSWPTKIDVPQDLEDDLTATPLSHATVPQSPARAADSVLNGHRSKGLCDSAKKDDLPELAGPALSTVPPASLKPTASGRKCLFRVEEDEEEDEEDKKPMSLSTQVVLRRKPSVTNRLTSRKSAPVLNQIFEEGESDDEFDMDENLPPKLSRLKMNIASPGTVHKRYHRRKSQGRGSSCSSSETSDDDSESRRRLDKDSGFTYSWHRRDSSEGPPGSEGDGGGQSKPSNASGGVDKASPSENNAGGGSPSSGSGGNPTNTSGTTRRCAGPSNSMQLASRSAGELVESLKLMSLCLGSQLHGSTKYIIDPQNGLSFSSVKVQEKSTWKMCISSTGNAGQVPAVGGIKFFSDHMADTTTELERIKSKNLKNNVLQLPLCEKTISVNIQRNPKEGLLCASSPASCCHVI
Summary of the method: as §1

[13] = target: RIPK4 (Homo sapiens, UniProt P57078)
Summary of the method: as §1

[14] = target: PKN1 (Homo sapiens, UniProt Q16512)
Summary of the method: as §1

[15] = target: PIK3CA(E545K) (Homo sapiens, UniProt P42336, E545K)
Summary of the method: as §1

[16] = target: T5, CDC2L2 (Homo sapiens, UniProt Q9UQ88)
T5 construct: gene CDK11A
Summary of the method: as §1

[17] = target: BMX (Homo sapiens, UniProt P51813)
Summary of the method: as §1

[18] = target: T6, RSK4(Kin.Dom.1-N-terminal) (Homo sapiens, UniProt Q9UK32)
T6 construct: gene RPS6KA6; Kin.Dom.1-N-terminal
Summary of the method: as §1

[19] = target: TTK (Homo sapiens, UniProt P33981)
Summary of the method: as §1

[20] = target: T7, RSK4(Kin.Dom.2-C-terminal) (Homo sapiens, UniProt Q9UK32)
T7 construct: gene RPS6KA6; Kin.Dom.2-C-terminal
Summary of the method: as §1

[21] = target: KIT-autoinhibited (Homo sapiens, UniProt P10721)
Summary of the method: as §1

[22] = target: NEK11 (Homo sapiens, UniProt Q8NG66)
Sequence of NEK11 (Q8NG66 whole entry): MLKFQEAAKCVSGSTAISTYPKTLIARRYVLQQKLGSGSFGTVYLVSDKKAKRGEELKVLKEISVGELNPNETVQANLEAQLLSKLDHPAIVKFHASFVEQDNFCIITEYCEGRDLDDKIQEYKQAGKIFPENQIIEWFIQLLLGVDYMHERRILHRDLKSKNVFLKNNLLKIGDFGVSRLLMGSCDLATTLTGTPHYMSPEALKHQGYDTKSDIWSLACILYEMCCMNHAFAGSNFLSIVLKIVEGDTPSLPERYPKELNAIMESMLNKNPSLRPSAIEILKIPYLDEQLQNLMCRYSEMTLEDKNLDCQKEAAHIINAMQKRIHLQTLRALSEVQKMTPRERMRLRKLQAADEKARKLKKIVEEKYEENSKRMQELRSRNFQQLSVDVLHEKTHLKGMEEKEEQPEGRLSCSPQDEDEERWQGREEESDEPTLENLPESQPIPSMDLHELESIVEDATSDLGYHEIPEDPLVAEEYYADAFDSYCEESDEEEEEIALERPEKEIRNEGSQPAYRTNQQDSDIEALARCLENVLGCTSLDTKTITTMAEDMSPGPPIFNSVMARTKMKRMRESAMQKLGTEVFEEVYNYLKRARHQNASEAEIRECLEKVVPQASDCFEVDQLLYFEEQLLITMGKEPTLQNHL
Summary of the method: as §1

[23] = target: T8, S6K1 (Homo sapiens, UniProt P23443)
T8 construct: gene RPS6KB1
T8 sequence (P23443 whole entry): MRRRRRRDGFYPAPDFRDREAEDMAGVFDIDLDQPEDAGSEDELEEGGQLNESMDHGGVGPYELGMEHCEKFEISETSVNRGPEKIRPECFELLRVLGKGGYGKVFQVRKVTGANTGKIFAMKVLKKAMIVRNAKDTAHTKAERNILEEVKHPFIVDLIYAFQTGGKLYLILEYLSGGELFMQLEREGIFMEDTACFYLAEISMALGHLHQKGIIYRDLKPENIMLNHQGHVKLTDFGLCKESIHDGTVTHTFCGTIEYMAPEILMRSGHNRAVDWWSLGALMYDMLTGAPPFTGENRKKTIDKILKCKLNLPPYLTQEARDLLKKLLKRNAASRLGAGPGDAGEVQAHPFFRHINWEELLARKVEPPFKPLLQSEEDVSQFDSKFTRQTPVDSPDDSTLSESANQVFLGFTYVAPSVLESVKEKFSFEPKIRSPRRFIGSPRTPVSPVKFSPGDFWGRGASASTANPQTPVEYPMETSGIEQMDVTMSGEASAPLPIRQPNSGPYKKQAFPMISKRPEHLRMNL
Summary of the method: as §1

[24] = target: ROCK1 (Homo sapiens, UniProt Q13464)
Sequence of ROCK1 (Q13464 whole entry): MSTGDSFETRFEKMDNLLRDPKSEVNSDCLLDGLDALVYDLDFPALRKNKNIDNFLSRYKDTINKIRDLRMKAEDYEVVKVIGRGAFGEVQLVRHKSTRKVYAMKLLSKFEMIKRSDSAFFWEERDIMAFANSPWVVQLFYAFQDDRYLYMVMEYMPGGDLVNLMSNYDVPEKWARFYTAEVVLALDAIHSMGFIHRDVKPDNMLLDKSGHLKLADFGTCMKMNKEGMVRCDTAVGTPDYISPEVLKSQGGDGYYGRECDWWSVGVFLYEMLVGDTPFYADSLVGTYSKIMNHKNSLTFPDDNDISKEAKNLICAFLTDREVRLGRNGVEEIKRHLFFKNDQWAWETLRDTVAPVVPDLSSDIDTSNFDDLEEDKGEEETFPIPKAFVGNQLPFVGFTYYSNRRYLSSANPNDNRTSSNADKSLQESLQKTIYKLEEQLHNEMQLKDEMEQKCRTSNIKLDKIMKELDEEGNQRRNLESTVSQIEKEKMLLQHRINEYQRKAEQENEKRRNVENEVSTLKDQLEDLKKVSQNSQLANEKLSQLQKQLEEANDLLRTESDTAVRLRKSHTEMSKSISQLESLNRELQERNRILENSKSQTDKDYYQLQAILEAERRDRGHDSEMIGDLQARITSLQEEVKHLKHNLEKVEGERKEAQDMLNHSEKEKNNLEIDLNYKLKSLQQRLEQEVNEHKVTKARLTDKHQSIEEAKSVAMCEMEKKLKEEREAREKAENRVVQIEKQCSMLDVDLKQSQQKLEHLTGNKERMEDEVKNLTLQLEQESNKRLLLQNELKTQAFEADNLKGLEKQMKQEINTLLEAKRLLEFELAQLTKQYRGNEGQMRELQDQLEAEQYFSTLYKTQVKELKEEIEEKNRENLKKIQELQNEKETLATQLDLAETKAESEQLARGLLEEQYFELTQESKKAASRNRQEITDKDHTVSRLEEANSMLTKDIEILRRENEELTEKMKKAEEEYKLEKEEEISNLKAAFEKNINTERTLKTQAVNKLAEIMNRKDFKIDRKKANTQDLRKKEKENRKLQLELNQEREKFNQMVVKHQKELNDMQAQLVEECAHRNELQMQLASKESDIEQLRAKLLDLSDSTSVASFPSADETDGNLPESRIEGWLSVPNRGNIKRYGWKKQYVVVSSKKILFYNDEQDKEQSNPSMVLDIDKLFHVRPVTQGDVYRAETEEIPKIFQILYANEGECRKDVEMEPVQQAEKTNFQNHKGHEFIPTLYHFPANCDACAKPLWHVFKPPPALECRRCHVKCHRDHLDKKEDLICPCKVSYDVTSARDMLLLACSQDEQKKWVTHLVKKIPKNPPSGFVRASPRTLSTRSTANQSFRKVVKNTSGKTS
Summary of the method: as §1

For `CNS(=O)(=O)c1ccc(N(C)C)c(Nc2nc(C)nc3cc(OC)c(OC)cc23)c1` [compound 15, 3-((6,7-dimethoxy-2-methylquinazolin-4-yl)amino)-4-(dimethylamino)-N-methylbenzenesulfonamide], the inhibition at 1 µM [1] was 5%, the inhibition at 1 µM [2] was 37% and the inhibition at 1 µM [3] was 27%. For the same compound, the inhibition at 1 µM [4] was 0%, the inhibition at 1 µM [5] was 0% and the inhibition at 1 µM [6] was 0%. For the same compound, the inhibition at 1 µM [7] was 16%, the inhibition at 1 µM [8] was 37% and the inhibition at 1 µM [9] was 26%. It also gave an inhibition at 1 µM [10] of 0%, an inhibition at 1 µM [11] of 2% and an inhibition at 1 µM [12] of 13%. For the same compound, the inhibition at 1 µM [13] was 8%, the inhibition at 1 µM [14] was 5% and the inhibition at 1 µM [15] was 21%. The inhibition at 1 µM [16] was 0%, the inhibition at 1 µM [17] was 10% and the inhibition at 1 µM [18] was 30%. The inhibition at 1 µM [19] was 2%, the inhibition at 1 µM [20] was 3% and the inhibition at 1 µM [21] was 19%. The inhibition at 1 µM [22] was 12%, the inhibition at 1 µM [23] was 20% and the inhibition at 1 µM [24] was 34%.
